Patent US9409943B2 (Bristol-Myers Squibb Company, priority 2012, dated 2016)
Where two headings read alike, the source gives them in different places.

How the values were obtained:
HCV GT1a(H77) replicon = assay: HCV replicon luciferase reporter assay, genotype 1a; assay type: cell-based, HCV genotype 1a; conditions: Hepatitis C virus, 72 h, HUH-7 cells, 3 days incubation
Excerpt: A stable HCV GT1a(H77) replicon luciferase reporter cell line (Yanagi M, Purcell R H, Emerson S U, et al. Transcripts from a single full-length cDNA clone of hepatitis C virus are infectious when directly transfected into the liver of a chimpanzee. Proc Natl Acad Sci USA 1997; 94(16):8738-8743) was generated as described previously for the genotype 1b(Con1) replicon luciferase cell line. The replicon construct was modified by introducing mutations into the genes encoding the NS3 helicase domain (proline replaced by leucine at position 1496) and NS5A (serine to isoleucine at position 2204) to improve replication in cell culture.
(§1) HCV replicon luciferase assays were developed to monitor the inhibitory effects of compounds described in the disclosure on HCV genotypes 1a and 1b viral replication. HUH-7 cells, constitutively expressing the HCV replicon, were grown in Dulbecco's Modified Eagle Media (DMEM) (Gibco-BRL) containing 10% Fetal calf serum (FCS) (Sigma) and 1 mg/mL G418 (Gibco-BRL). Compounds were serially diluted 3 folds in DMSO for a twenty-point titration and subsequently transferred to sterile 384-well tissue-culture treated plates (Corning cat #3571). The plates were then seeded with 50 μL of cells at a density of 3.0×10^3 cells/well in DMEM containing 4% FCS (final DMSO concentration at 0.5%). After 3 days incubation at 37° C., cells were analyzed for Renilla Luciferase activity using the EnduRen as substrate (Promega cat #E6485). The EnduRen substrate was diluted in DMEM and then added to the plates to a final concentration of 7.5 μM. The plates were incubated for 2 hrs at 37° C. and then read immediately for 30 seconds with Viewlux Imager (PerkinElmer) using a luminescence program. To assess cytotoxicity of compounds, CC50 values were generated by multiplexing the EnduRen-containing plates with Cell Titer-Blue (Promega, cat # G8082). Cell-Titer Blue (3 μL) was added to each well and incubated for 8 hrs at 37° C. The fluorescence signal from each well was read, with an excitation wavelength at 525/10 nm and an emission wavelength of 598/10 nm, using the Viewlux Imager.
(§2) The EC50 values for compounds were calculated by using a four-parameter logistic equation: y=A+((B−A)/(1+((C/x)^D))), where A and B denotes minimal and maximal % inhibition, respectively, C is the EC50, D is the hill slope and x represents compound concentration.

HCV GT1b(Con1) replicon = assay: HCV replicon luciferase reporter assay, genotype 1b; assay type: cell-based, HCV genotype 1b; conditions: Hepatitis C virus, 72 h, HUH-7 cells, 3 days incubation
Excerpt: An HCV GT1b(Con1) replicon cell system was established as described by Lohmann V, Korner F, Koch J, Herian U, Theilmann L, Bartenschlager R., Science 285(5424):110-3 (1999) and modified to introduce a luciferase reporter (Krieger N, Lohmann V, and Bartenschlager R, J. Virol. 75(10):4614-4624 (2001)). cDNA encoding a humanized form of the Renilla luciferase gene, and a linker sequence fused directly to the 3′-end of the luciferase gene were introduced into the replicon construct using an Asc1 restriction site located in core, directly upstream of the neomycin marker gene. The adaptive mutation at position 1179 (serine to isoleucine) was also introduced (Blight K J, Kolykhalov, A A, Rice, C M, Science 290(5498):1972-1974). A stable cell line constitutively expressing this HCV replicon construct was generated by first linearizing plasmid DNAs with ScaI. RNA transcripts were synthesized in vitro using the T7 MegaScript transcription kit (Ambion, Austin, Tex.) according to manufacturer's directions. In vitro transcripts of the cDNA were transfected into the human hepatoma cell line, HUH-7. […] Resulting cell lines were characterized for positive and negative strand RNA production and protein production over time.
as §1, §2

Compound	EC50 (HCV GT1a(H77) replicon; read-out: LE_1a (EC50, range))	EC50 (HCV GT1b(Con1) replicon; read-out: LE_1b (EC50, range))	EC50 (HCV GT1a(H77) replicon; read-out: LE_1a (EC50))	EC50 (HCV GT1b(Con1) replicon; read-out: LE_1b (EC50))
COc1ccccc1C(=O)O[C@@H]1C[C@H]2C(=O)N[C@]3(C(=O)NS(=O)(=O)C4(CF)CC4)C[C@H]3/C=C\CC[C@@H](C)C[C@@H](C)[C@H](NC(=O)OC(C)(C)C(F)(F)F)C(=O)N2C1 [Compound 1008, (2R,6S,7R,9R,13aS,14aR,16aS,Z)-14a-(((1-(fluoromethyl)cyclopropyl)sulfonyl)carbamoyl)-7,9-dimethyl-5,16-dioxo-6-((((1,1,1-trifluoro-2-methylpropan-2-yl)oxy)carbonyl)amino)-1,2,3,5,6,7,8,9,10,11,13a,14,14a,15,16,16a-hexadecahydrocyclopropa[e]pyrrolo[1,2-a][1,4]diazacyclopentadecin-2-yl 2-methoxybenzoate]	5.01 to 35 nM	1.01 to 5 nM	–	–
C[C@@H]1CC/C=C\[C@@H]2C[C@@]2(C(=O)NS(=O)(=O)C2(CF)CC2)NC(=O)[C@@H]2C[C@@H](OC(=O)c3ccc4c(c3)OCO4)CN2C(=O)[C@@H](NC(=O)OC(C)(C)C(F)(F)F)[C@H](C)C1 [Compound 1011, (2R,6S,7R,9R,13aS,14aR,16aS,Z)-14a-(((1-(fluoromethyl)cyclopropyl)sulfonyl)carbamoyl)-7,9-dimethyl-5,16-dioxo-6-((((1,1,1-trifluoro-2-methylpropan-2-yl)oxy)carbonyl)amino)-1,2,3,5,6,7,8,9,10,11,13a,14,14a,15,16,16a-hexadecahydrocyclopropa[e]pyrrolo[1,2-a][1,4]diazacyclopentadecin-2-yl benzo[d][1,3]dioxole-5-carboxylate]	5.01 to 35 nM	1.01 to 5 nM	7.98 nM	1.68 nM
C[C@@H]1CC/C=C\[C@@H]2C[C@@]2(C(=O)NS(=O)(=O)C2(CF)CC2)NC(=O)[C@@H]2C[C@@H](OC(=O)c3cccc(F)c3)CN2C(=O)[C@@H](NC(=O)OC(C)(C)C(F)(F)F)[C@H](C)C1 [Compound 1010, (2R,6S,7R,9R,13aS,14aR,16aS,Z)-14a-(((1-(fluoromethyl)cyclopropyl)sulfonyl)carbamoyl)-7,9-dimethyl-5,16-dioxo-6-((((1,1,1-trifluoro-2-methylpropan-2-yl)oxy)carbonyl)amino)-1,2,3,5,6,7,8,9,10,11,13a,14,14a,15,16,16a-hexadecahydrocyclopropa[e]pyrrolo[1,2-a][1,4]diazacyclopentadecin-2-yl 3-fluorobenzoate]	5.01 to 35 nM	1.01 to 5 nM	–	–
CC[C@@H]1C[C@H](C)CC/C=C\[C@@H]2C[C@@]2(C(=O)NS(=O)(=O)C2(C)CC2)NC(=O)[C@@H]2C[C@@H](OC(=O)N3Cc4cccc(F)c4C3)CN2C(=O)[C@H]1NC(=O)OC(C)(C)C [Compound 1313, (2R,6S,7R,9R,13aS,14aR,16aS,Z)-6-((tert-butoxycarbonyl)amino)-7-ethyl-9-methyl-14a-(((1-methylcyclopropyl)sulfonyl)carbamoyl)-5,16-dioxo-1,2,3,5,6,7,8,9,10,11,13a,14,14a,15,16,16a-hexadecahydrocyclopropa[e]pyrrolo[1,2-a][1,4]diazacyclopentadecin-2-yl 4-fluoroisoindoline-2-carboxylate]	1.01 to 5 nM	1.01 to 5 nM	–	–
C[C@@H]1CC/C=C\[C@@H]2C[C@@]2(C(=O)NS(=O)(=O)C2(C)CC2)NC(=O)[C@@H]2C[C@@H](OC(=O)Nc3ccc(F)cc3)CN2C(=O)[C@@H](NC(=O)OC(C)(C)C(F)(F)F)[C@H](C)C1 [Compound 1309]	35 to 62.5 nM	5.01 to 35 nM	–	–
COc1ccc(C(=O)O[C@@H]2C[C@H]3C(=O)N[C@]4(C(=O)NS(=O)(=O)C5(C)CC5)C[C@H]4/C=C\CC[C@@H](C)C[C@@H](C)[C@H](NC(=O)OC(C)(C)C(F)(F)F)C(=O)N3C2)cc1 [Compound 1005, (2R,6S,7R,9R,13aS,14aR,16aS,Z)-7,9-dimethyl-14a-(((1-methylcyclopropyl)sulfonyl)carbamoyl)-5,16-dioxo-6-((((1,1,1-trifluoro-2-methylpropan-2-yl)oxy)carbonyl)amino)-1,2,3,5,6,7,8,9,10,11,13a,14,14a,15,16,16a-hexadecahydrocyclopropa[e]pyrrolo[1,2-a][1,4]diazacyclopentadecin-2-yl 4-methoxybenzoate]	1.01 to 5 nM	0.51 to 1 nM	1.15 nM	0.75 nM
C[C@@H]1CC/C=C\[C@@H]2C[C@@]2(C(=O)NS(=O)(=O)C2(C)CC2)NC(=O)[C@@H]2C[C@@H](OC(=O)c3ccc4c(c3)OCCO4)CN2C(=O)[C@@H](NC(=O)OC(C)(C)C(F)(F)F)[C@H](C)C1 [Compound 1015, (2R,6S,7R,9R,13aS,14aR,16aS,Z)-7,9-dimethyl-14a-(((1-methylcyclopropyl)sulfonyl)carbamoyl)-5,16-dioxo-6-((((1,1,1-trifluoro-2-methylpropan-2-yl)oxy)carbonyl)amino)-1,2,3,5,6,7,8,9,10,11,13a,14,14a,15,16,16a-hexadecahydrocyclopropa[e]pyrrolo[1,2-a][1,4]diazacyclopentadecin-2-yl 2,3-dihydrobenzo[b][1,4]dioxine-6-carboxylate]	5.01 to 35 nM	1.01 to 5 nM	–	–
CC[C@@H]1C[C@@H](C)CC/C=C\[C@@H]2C[C@@]2(C(=O)NS(=O)(=O)C2(C)CC2)NC(=O)[C@@H]2C[C@@H](OC(=O)N3Cc4cccc(F)c4C3)CN2C(=O)[C@H]1NC(=O)OC(C)(C)C [Compound 1312, (2R,6S,7R,9S,13aS,14aR,16aS,Z)-6-((tert-butoxycarbonyl)amino)-7-ethyl-9-methyl-14a-(((1-methylcyclopropyl)sulfonyl)carbamoyl)-5,16-dioxo-1,2,3,5,6,7,8,9,10,11,13a,14,14a,15,16,16a-hexadecahydrocyclopropa[e]pyrrolo[1,2-a][1,4]diazacyclopentadecin-2-yl 4-fluoroisoindoline-2-carboxylate]	5.01 to 35 nM	1.01 to 5 nM	–	–
C[C@H]1CC/C=C\[C@@H]2C[C@@]2(C(=O)NS(=O)(=O)C2(C)CC2)NC(=O)[C@@H]2C[C@@H](OC(=O)c3ccc4c(c3)OCCO4)CN2C(=O)[C@@H](NC(=O)OC(C)(C)C)[C@H](C)C1 [Compound 1012, (2R,6S,7R,9S,13aS,14aR,16aS,Z)-6-((tert-butoxycarbonyl)amino)-7,9-dimethyl-14a-(((1-methylcyclopropyl)sulfonyl)carbamoyl)-5,16-dioxo-1,2,3,5,6,7,8,9,10,11,13a,14,14a,15,16,16a-hexadecahydrocyclopropa[e]pyrrolo[1,2-a][1,4]diazacyclopentadecin-2-yl 2,3-dihydrobenzo[b][1,4]dioxine-6-carboxylate]	5.01 to 35 nM	1.01 to 5 nM	–	–
C[C@@H]1CC/C=C\[C@@H]2C[C@@]2(C(=O)NS(=O)(=O)C2(C)CC2)NC(=O)[C@@H]2C[C@@H](OC(=O)N3Cc4cccc(F)c4C3)CN2C(=O)[C@@H](NC(=O)OC(C)(C)C)[C@H](C)C1 [Compound 1315, (2R,6S,7R,9R,13aS,14aR,16aS,Z)-6-((tert-butoxycarbonyl)amino)-7,9-dimethyl-14a-(((1-methylcyclopropyl)sulfonyl)carbamoyl)-5,16-dioxo-1,2,3,5,6,7,8,9,10,11,13a,14,14a,15,16,16a-hexadecahydrocyclopropa[e]pyrrolo[1,2-a][1,4]diazacyclopentadecin-2-yl 4-fluoroisoindoline-2-carboxylate]	0.51 to 1 nM	0.1 to 0.5 nM	0.96 nM	0.33 nM
C[C@@H]1CC/C=C\[C@@H]2C[C@@]2(C(=O)NS(=O)(=O)C2(CF)CC2)NC(=O)[C@@H]2C[C@@H](OC(=O)c3ccc4ccccc4c3)CN2C(=O)[C@@H](NC(=O)OC(C)(C)C(F)(F)F)[C@H](C)C1 [Compound 1006]	1.01 to 5 nM	1.01 to 5 nM	–	–
